“And” between values parts separate entries of the source, which are not always exact repeats. Equal entries are not always repeated. Where two headings read alike, the source gives them in different places.
Legend:
[1] = target: T1, SMARCA2^BD (Homo sapiens, UniProt P51531); test: SPR binding to immobilised SMARCA2 bromodomain; conditions: SPR, read-out: SMARCA2 KD
T1 construct: P51531-2, residues 1373-1493 with additional N-terminal SM residues; GST (TEV site) (N, cleaved yes); made in house; host or cells: Escherichia coli BL21(DE3)
T1 sequence (P51531 1373-1493 isoform P51531-2): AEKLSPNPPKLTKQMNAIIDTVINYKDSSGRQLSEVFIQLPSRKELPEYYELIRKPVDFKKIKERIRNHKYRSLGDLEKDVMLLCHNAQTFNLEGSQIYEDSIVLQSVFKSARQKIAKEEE

[2] = target: T2, VCB complex (Homo sapiens, UniProt P40337); test: SPR binary binding to immobilised VCB complex
T2 construct: His6 (TEV site) (N, cleaved yes); made in house
T2 sequence (P40337 54-213): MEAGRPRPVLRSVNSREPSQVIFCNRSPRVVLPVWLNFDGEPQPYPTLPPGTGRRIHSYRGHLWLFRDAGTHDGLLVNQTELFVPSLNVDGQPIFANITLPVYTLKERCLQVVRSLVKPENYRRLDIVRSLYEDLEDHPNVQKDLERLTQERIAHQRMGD
T2 sequence (Q15369 17-112 partner limits assumed): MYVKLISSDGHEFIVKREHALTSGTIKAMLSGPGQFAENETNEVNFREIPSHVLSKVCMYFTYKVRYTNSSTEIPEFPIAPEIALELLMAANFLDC
T2 sequence (Q15370 1-104 partner limits assumed): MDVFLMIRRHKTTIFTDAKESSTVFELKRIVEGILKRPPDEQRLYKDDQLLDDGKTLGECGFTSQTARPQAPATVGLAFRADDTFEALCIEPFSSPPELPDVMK
Procedure: SMARCA4^BD was provided by the Structural Genomics Consortium (SGC), Toronto[32] and SMARCA2^BD and PRM1^BD5 were synthesised by GeneArt then subcloned into pDEST15 vectors (Invitrogen). The VCB complex was expressed and purified as described previously, with the modification that 0.3 mM IPTG was used for induction of expression. […] Both were stored in 20 mM 4-(2-hydroxyethyl)−1-piperazineethanesulfonic acid (HEPES), 150 mM sodium chloride and 1 mM tris(2-carboxyethyl)phosphine (TCEP) pH 7.5. SMARCA2^BD, SMARCA4^BD and PBRM1^BD5 were expressed in Escherichia coli BL21(DE3) as N-terminal GST fusion proteins with a TEV protease cleavage site. Expression and purification of these proteins has been described previously[32],[33]. Starter cultures were grown overnight at 37 °C in 10 mL of Luria-Bertani (LB) medium with ampicillin (100 μg/mL). The starter cultures were diluted (1:100) in Terrific Broth (TB) medium with ampicillin (100 μg/mL) and grown in a shaking incubator at 37 °C to an optical density (OD600) ~1 before the temperature was lowered for induction (to 23 °C for SMARCA2^BD or 18 °C for SMARCA4^BD and PRRM1^BD5). […] Cells were harvested by centrifugation and stored at −80 °C prior to purification. […] The Lysis buffers were as follows: for SMARCA2^BD: 50 mM HEPES, 500 mM sodium chloride, 5% glycerol, 5 mM dithiothreitol (DTT); for SMARCA4^BD: 25 mM HEPES, 0.3 M sodium chloride, 5% glycerol, 10 mM DTT, pH 7.5; for PBRM1^BD5: 25 mM HEPES, 300 mM sodium chloride, 5% glycerol, 10 mM DTT, pH 7.8; in each case supplemented with complete protease inhibitors (Roche). Affinity purification was performed using Glutathione Sepharose 4B (GE Healthcare) in batch mode or on-column. […] For SMARCA2^BD, prior to TEV protease cleavage the eluted GST-tagged BD was first dialysed into desalting buffer (20 mM HEPES, 250 mM sodium chloride, pH 7.0 + 0.5% glycerol). Where TEV cleavage was performed in solution, a second affinity (GST-trap) column purification step was carried out to remove the GST-tag and uncleaved GST-tagged protein. Proteins were further purified by SEC (HiLoad Superdex-75, 16/600) (GE Healthcare) and stored in Storage buffer (for SMARCA2^BD: 20 mM HEPES, 150 mM sodium chloride, pH 7.5; for SMARCA4^BD: 10 mM HEPES, 0.5 M NaCl, 5% glycerol, pH 7.5; for PBRM1^BD5: 20 mM HEPES, 300 mM NaCl, 5 mM DTT, pH 7.8). For AlphaScreen assays, eluted GST-tagged BDs were purified directly by SEC in the respective storage buffers without TEV cleavage. All chromatography purification steps were performed either at room temperature or 4 °C using an ÄKTA FPLC purification system (GE Healthcare) or a plastic Econo-Pac column (Bio-Rad).
SPR data were acquired on Biacore 8K or T200 instruments (Cytiva). Target proteins were immobilised at 25 °C on CM5 chips by amine coupling (EDC/NHS, Cytiva) in HBS-P+ running buffer (pH 7.4), containing 2 mM TCEP. […] The reference surface was subsequently deactivated using 1 M ethanolamine. […] Biotinylated VCB was prepared as previously described[27]: in brief, the complex was mixed 1:1 with EZ-Link NHS–PEG4–biotin (Thermo Scientific) and incubated at room temperature for 1 h. Unreacted NHS-biotin was removed using a PD-10 desalting column (Cytiva) into 20 mM HEPES, pH 7.5, 150 mM sodium chloride and 1 mM DTT. The reference surface was generated by deactivating the EDC/NHS-treated surface with 1 M ethanolamine. All interaction experiments were done at 6 °C in running buffer (20 mM TRIS, pH 8.3, 150 mM potassium chloride, 2 mM magnesium chloride, 2 mM TCEP, 0.005% TWEEN 20, 1% dimethyl sulfoxide). For ternary complex measurements, a sensor chip surface with VCB immobilised was used (preparation as described above). Experiments were run in dual-inject mode with 10 µM SMARCA present during the injection and dissociation phase. Sensorgrams from reference surfaces and blank injections were subtracted from the raw data prior to data analysis using Biacore Insight software.

[3] = Microsomal stability; assay type: in vitro ADME; conditions: for Mic. Stab. Human / Mic. Stab. Human QH: human liver microsomes; for Mic. Stab. Mouse / Mic. Stab. Mouse QH: mouse liver microsomes; for Mic. Stab. Rat / Mic. Stab. Rat QH: rat liver microsomes
Procedure: […] Reactions were terminated by addition of acetonitrile and precipitates separated by centrifugation. Compound concentrations in supernatants were measured by HPLC-MS/MS and clearance was calculated from compound half-lives using the well-stirred liver model.

[4] = system: VCB: PROTAC: SMARCA2^BD ternary complex; test: TR-FRET ternary complex affinity and cooperativity, SMARCA2; assay type: binding, human; conditions: ratio TR-FRET EC50 / TR-FRET EC50 +VCB measured in the same run, SMARCA2BD
[5] = binary binding to VCB, mean ± SD

Compound | Kd ([1]; SMARCA2BD, mean ± SD) [nM] | Kd ([1]; individual replicates) | Kd [2, 5] [nM] | Kd ([2]; binary, individual replicates) | Mic. Stab. Human [3] [% QH] | Mic. Stab. Human QH [3] | Mic. Stab. Mouse [3] [% QH] | Mic. Stab. Mouse QH [3] | Mic. Stab. Rat [3] [% QH] | Mic. Stab. Rat QH [3] | cooperativity α (SMARCA2BD) [4]
Cc1ncsc1-c1ccc([C@H](COC(C)(C)CN2CCC(c3ccc4c(c3)n(C3CCCC3)c3nc(=O)c5c(Br)cccc5n43)CC2)NC(=O)[C@@H]2C[C@@H](O)CN2C(=O)[C@@H](NC(=O)C2(F)CC2)C(C)(C)C)cc1 [compound 28] | 196 ± 3 | 199 nM and 193 nM and 195 nM | 55 ± 29 | 50.4 nM and 131 nM and 47.1 nM and 49.5 nM and 39.6 nM and 49.4 nM and 39.8 nM and 43.6 nM and 44.9 nM | 57 ± 4 | 51.200% and 55.600% and 59.900% and 60.900% | <24 | < 24.200% and 25.800% | <23 | < 23.100% and 29.700% | 3.8 ± 0.4
Cc1ncsc1-c1ccc([C@H](CC[C@@H](C)CCN2CCC(c3ccc4c(c3)n(C3CCCC3)c3nc(=O)c5c(Br)cccc5n43)CC2)NC(=O)[C@@H]2C[C@@H](O)CN2C(=O)[C@@H](NC(=O)C2(F)CC2)C(C)(C)C)cc1 [compound 29] | 255 ± 42 | 304 nM and 227 nM and 235 nM | 13 ± 7 | 21.3 nM and 18.2 nM and 7.09 nM and 8.27 nM and 5.72 nM and 14.8 nM | <24 | <24.400 <24.400% | <24 | <24.200 <24.200% | <23 | <23.100 <23.100% | 6.4 ± 1.1
Cc1ncsc1-c1ccc([C@H](CCC(C)(C)CCN2CCC(c3ccc4c(c3)n(C3CCCC3)c3nc(=O)c5c(Br)cccc5n43)CC2)NC(=O)[C@@H]2C[C@@H](O)CN2C(=O)[C@@H](NC(=O)C2(F)CC2)C(C)(C)C)cc1 [compound 30] | 325 ± 31 | 290 nM and 351 nM and 333 nM | 29 ± 8 | 38.3 nM and 25.5 nM and 32.6 nM and 21 nM | <24 | <24.400 <24.400% | <24 | <24.200% | <23 | <23.100 <23.100% | 5.9 ± 1.9

Source: article PMC9551036, “A selective and orally bioavailable VHL-recruiting PROTAC achieves SMARCA2 degradation in vivo” (Nature Communications, 2022)
